Experimental data from patent publication US10858360B2, “Tricyclic gyrase inhibitors” (priority 2011, dated 2020).
Values after ≈ are worked out from the molar mass of the structure shown. Read-outs that look alike come from different tables or passages of the source.

How the values were obtained:
[1] = system: S. aureus ATCC 13709; test: MIC, S. aureus ATCC 13709 (Alamar Blue broth microdilution); format: cell-based; conditions: for MIC: Staphylococcus aureus, ATCC13709, S. aureus
[2] = system: E. coli ATCC 25922; test: MIC, E. coli ATCC 25922; format: cell-based; conditions: for MIC: Escherichia coli, ATCC25922, E. coli
[3] = S. aureus, Alamar Blue read after overnight incubation at 35° C.
[4] = E. coli, Alamar Blue read after overnight incubation at 35° C.
[5] = Alamar Blue read after overnight incubation at 35° C.

Row | Structure (SMILES) | MIC Sa [1, 3] [µg/mL] | MIC Ec [2, 4] [µg/mL] | MIC [1, 5] [µg/mL] | MIC [2, 5] [µg/mL] | other results
1 | CNc1cc(F)cc2c1[nH]c1nc(Oc3cncc(Br)c3)nc(N3CC4CC(N)C4C3)c12 (centres unmarked) [4.283] | ≤0.5 | ≤0.5 |  |  | 
2 | CNc1cc(C)cc2c1[nH]c1nc(Oc3cnc(C)nc3)nc(N3CC4C(N)C4C3)c12 (centres unmarked) [6.26] |  |  |  |  | MIC Sa [1]: ≤0.5 µg/mL; MIC Ec [2]: 1 µg/mL (≈ 2.4 µM)
3 | CNNc1cc(F)cc2c1[nH]c1nc(Oc3cnc(C)nc3)nc(N3CC4C(N)C4C3)c12 (centres unmarked) [2.1] | ≤0.5 | >16 |  |  | 
4 | CNc1cc(F)cc2c1[nH]c1nc(Oc3cnc(C)nc3)nc(NCCCN)c12 [4.108] | 4 (≈ 10.1 µM) | >16 |  |  | 
5 | CNc1cc(F)cc2c1[nH]c1nc(Oc3cnc(N)nc3)nc(N3CC(N)C4(CC4)C3)c12 (centres unmarked) [4.177] | ≤0.5 | ≤0.5 |  |  | 
6 | CNc1ncnc2c1[nH]c1nc(Oc3cnc(C)nc3)nc(N3CCC4(CC4N)C3)c12 (centres unmarked) [7.09] |  |  | 8 (≈ 19.1 µM) | > 64 | 
7 | CNc1cc(F)cc2c1[nH]c1nc(Oc3cnc(N)nc3)nc(N3CC4C(CN)C4C3)c12 (centres unmarked) [4.188] |  |  | ≤ 0.5 | 8 (≈ 18.4 µM) | 
8 | CNc1cc(F)cc2c1[nH]c1nc(Oc3ccc(CO)nc3)nc(N3CC4CC3C[C@@H]4N)c12 (some centres unmarked) [4.392] |  |  | 16 (≈ 35.6 µM) | > 16 | 
9 | COc1cccc2c1[nH]c1nc(Sc3cnc4ccc[n+]([O-])c4c3)nc(N3CC[C@@H](N)C3)c12 [1.78] |  |  | ≤ 0.5 | 64 (≈ 139 µM) | 
10 | CNc1cc(F)cc2c1[nH]c1nc(Oc3cnc(N)nc3)nc(N3CC4C(N)CC4(C)C3)c12 (mixture of isomers) [4.192] | ≤0.5 | 4 |  |  | 
11 | CNc1cc(F)cc2c1[nH]c1nc(Oc3cncc(C(N)=O)c3)nc(N3CC4CC(N)C4C3)c12 (centres unmarked) [4.236] |  |  | ≤ 0.5 | ≤ 0.5 | 
12 | CNc1cc(F)cc2c1[nH]c1nc(Oc3cnc(C(C)(C)O)nc3)nc(N3CC4CC3C[C@@H]4N)c12 (some centres unmarked) [4.411] |  |  | ≤ 0.5 | ≤ 0.5 | 
13 | CNc1cc(F)cc2c1[nH]c1nc(Oc3cnc(C)nc3)nc(N3CC4CCC(N)C3C4)c12 (centres unmarked) [4.123] | 16 (≈ 35.7 µM) | >16 |  |  | 
14 | CNc1cc(Cl)cc2c1[nH]c1nc(Oc3cnc4cccnc4c3)nc(N3CCCC4(CC4N)C3)c12 (centres unmarked) [6.14] |  |  |  |  | MIC Sa [1]: ≤0.5 µg/mL; MIC Ec [2]: 1 µg/mL (≈ 2 µM)
15 | CNc1cccc2c1[nH]c1nc(Oc3ccc(C(=O)OC)nc3)nc(N3CC4C(N)C4C3)c12 (centres unmarked) [3.21] |  |  | ≤ 0.5 | 1 (≈ 2.24 µM) | 
16 | CNc1cc(F)cc2c1[nH]c1nc(Oc3cnc(COC)nc3)nc(N3CC(N)C4(CC4)C3)c12 (centres unmarked) [4.343] | ≤0.5 | ≤0.5 |  |  | 

Row | Structure (SMILES) | MIC Sa [1, 3] [µg/mL] | MIC Ec [2, 4] [µg/mL] | MIC [1, 5] [µg/mL] | MIC [2, 5] [µg/mL] | other results
17 | CNc1cc(F)cc2c1[nH]c1nc(Oc3cnc4ccc[n+]([O-])c4c3)nc(N3CC4(CCC4N)C3)c12 (centres unmarked) [4.342] | ≤0.5 | 4 (≈ 8.22 µM) |  |  | 
18 | CNc1cc(F)cc2c1[nH]c1nc(Oc3cnc(N4CCN(C(C)=O)CC4)nc3)nc(N3CCC(N)C3)c12 (centres unmarked) [4.229] | ≤0.5 | 2 (≈ 3.84 µM) |  |  | 
19 | CNc1cc(F)cc2c1[nH]c1nc(Oc3cncc(-c4nnnn4C)c3)nc(N3CC4C(N)C4C3)c12 (centres unmarked) [4.168] |  |  | ≤ 0.5 | 2 (≈ 4.1 µM) | 
20 | CCc1cc(F)cc2c1[nH]c1nc(Oc3cncnc3)nc(N3CC4CC(N)C4C3)c12 (centres unmarked) [2.5] | ≤0.5 | 2 (≈ 4.77 µM) |  |  | 
21 | CNc1cc(F)cc2c1[nH]c1nc(Oc3cnc(C)nc3)nc(N3CC4CONC4C3)c12 (centres unmarked) [4.122] | ≤0.5 | 1 (≈ 2.29 µM) |  |  | 
22 | CNc1cc(F)cc2c1[nH]c1nc(Oc3cnc(C(C)C)nc3)nc(N3CCC4(CC4N)C3)c12 (centres unmarked) [4.235] |  |  | ≤ 0.5 | ≤ 0.5 | 
23 | CNc1cc(F)cc2c1[nH]c1nc(Oc3cncnc3)nc(N3CCC4(CC4N)C3)c12 (centres unmarked) [4.003] |  |  | ≤ 0.5 | ≤ 0.5 | 
24 | COc1cccc2c1[nH]c1nc(Oc3cncc(C#N)c3)nc(N3CC4C(N)C4C3)c12 (centres unmarked) [2.15] | 1 (≈ 2.42 µM) | >32 |  |  | 
25 | NC1CN(c2nc(Sc3cnc4ccc[n+]([O-])c4c3)nc3[nH]c4c(NC5CC5)cc(F)cc4c23)CC12CC2 (centres unmarked) [1.2] |  |  | 32 (≈ 60.5 µM) | > 64 | 
26 | CNc1cc(F)cc2c1[nH]c1nc(Oc3cnc(C)nc3)nc(N3CCC(F)(CN)CC3)c12 [4.159] |  |  | ≤ 0.5 | ≤ 0.5 | 
27 | CNc1cc(F)cc2c1[nH]c1nc(Oc3cnc(C)nc3)nc(N3CC(N)C4(CC4)C3)c12 (centres unmarked) [4.068] | ≤0.5 | ≤0.5 |  |  | 
28 | CNc1cc(F)cc2c1[nH]c1nc(Oc3ccc4c(c3)C(=O)NC43CC3)nc(N3CC4(CCC4N)C3)c12 (centres unmarked) [4.380] | 4 (≈ 8.01 µM) | 16 (≈ 32 µM) |  |  | 
29 | CNc1cc(F)cc2c1[nH]c1nc(Oc3cnc(N4CC(S(=O)(=O)CC5CC5)C4)nc3)nc(N3CC4C(N)C4C3)c12 (centres unmarked) [4.337] | ≤0.5 | 1 (≈ 1.73 µM) |  |  | 
30 | CNc1cc(F)cc2c1[nH]c1nc(Oc3cncc(Cl)c3)nc(N3CCC4(C[C@H]4N)C3)c12 (some centres unmarked) [4.278] |  |  | ≤ 0.5 | ≤ 0.5 | 
31 | CNc1cc(F)cc2c1[nH]c1nc(Oc3cnc4cccnc4c3)nc(N3C[C@H](N)C4(CC4)C3)c12 [4.038] |  |  | ≤ 0.5 | ≤ 0.5 | 
